1 compound from patent US9598361B1, “Amino substituted acetamide derivative” (KING SAUD UNIVERSITY, priority 2016, dated 2017) can be followed below.

The structures appear in SMILES notation.

The test system of data set [1] is acetic acid induced colitis. In words: Anti-ulcerative colitis activity, acetic acid induced colitis. The class given is in vivo, rats. As to conditions: Table 4, CP-1-7 50 mg/kg, dexamethasone 0.1 mg/kg. As to the method:
(§1) The biological activities of the investigational compounds (CP1-8) were investigated as follows. Swiss albino mice of both sexes (26-30 g) and male Wistar rats (180-200 g) were purchased from the animal house of King Saud University, KSA. Animals were housed in standard polypropylene cages with wire mesh top and maintained under standard conditions (temperature 23±1.0° C., humidity 55±10%, 12 h light/12 h dark cycle). They were fed a standard pellet diet with water ad libitum and were allowed to adapt to the laboratory environment for one week before experimentation.
Groups of animals each of 6 rats were used for assessing the anti-ulcerative colitis activity. The first group received dexamesathone at dose 0.1 mg/kg orally to serve as standard; two other groups received water orally and served as normal control and control colitis. Other groups received the tested compounds CP 1-7 at a dose 50 mg/kg and tested compound CP 8 at a dose of 100 mg/kg. Ulcerative colitis was induced by slowly infusion of 2 mL (4%, v/v) acetic acid in saline into the colon through the catheter. Two hours after the induction of colitis, animals received the 1st dose of all medication, then all groups received medication for 5 consecutive days, two hours after the last dose, animals were sacrificed by ether anesthesia, colonic segments (8 cm in length and 3 cm proximal to the anus) were excised, opened and were used for macroscopic scoring (Awaad et al., 2013).
The colonic lesions were assessed as follows. The colon specimens were weighted and wet weight/length ratio was calculated for all the rats. The specimens were examined under a dissecting microscope and the mucosal lesions were quantified by the scoring system (0-5) given by Awaad et al., (2013) after some modifications. The lesion scores were determined as follows: 0=no damage, 1=Local edema and inflammation without ulcers; 2=One ulcer without inflammation; 3=one to two ulcers with inflammation & lesion diameter <1 cm; 4=More than two ulcers with lesion diameter 1-2 cm; 5=Sever ulceration with lesion diameter >2 cm.
The ulcer area was measured using plane glass square. Each cell on the glass square was 1 mm^2 in area and the number of cells was counted and the ulcer area was determined for each colon. The ulcer index was measured by summing the lesion score and the ulcer area for each colon specimen (Awaad et al, 2013).

Data set [2] deals with absolute ethanol-induced ulcer. Briefly: Anti-ulcerogenic activity, absolute ethanol-induced ulcer model. As to conditions: Table 2, oral, CP-1-7 50 mg/kg, ranitidine 100 mg/kg. The class given is in vivo, male Wistar rats. How it is done: as §1
Evaluation of the anti-ulcerogenic activity was carried out using absolute ethanol-induced ulcer model as described by Bighettia et al. (2005). Eighteen male Wistar rats were divided into 3 groups each of 6 rats. Group 1 received the vehicle and served as control ulcer, Group 2 received ranitidine (100 mg/kg) and served as standard, and Groups 3 received the target compound at a dose of 50 mg/kg for CP1-7 and a dose of 100 mg/kg for CP8.
Rats of all groups were fasted for 24 h then all medications were administered orally. One hour after treatment, the animals received an oral dose of absolute ethanol (1 ml/200 g) and then sacrificed one hour later, by ether inhalation, the stomachs were rapidly removed, opened along their greater curvature and gently rinsed under running tap water.
Number of lesions in the glandular part of the stomach were measured under an illuminated magnifying microscope (10×). Long lesions were counted and their lengths were measured. Petechial lesions were counted, and then each five petechial lesions were taken as 1 mm of ulcer.
The lesion scores in the mucosal lesions were quantified by the scoring system (0-5) 0=no damage, 1=Local edema and inflammation without ulcers; 2=One ulcer without inflammation; 3=one to two ulcers with inflammation & lesion diameter <1 cm; 4=More than two ulcers with lesion diameter 1-2 cm; 5=Sever ulceration with lesion diameter >2 cm (Morris et al., 1989).
In order to calculate the Ulcer Index (mm), the sum of the total length of long ulcers and petechial lesions in each group of rats was divided by its number. The curative ratio was determined according to the formula: […]

The subject of data set [3] is liver and kidney functions. Briefly: Effect on liver and kidney functions. The note with it: Table 6, oral 50 mg/kg, 6 h after last dose, mean ± SD, n = 10. The class given is in vivo, Male Wister rats. As to the method: The effect on liver and kidney functions using the derivatives were investigated as follows. Male Wister rats were divided into 2 groups, each of 10 rats. The 1st group was left as a control and administered the vehicle orally, while the other group was orally administered the synthesized compounds in a dose of 50 mg/kg (for CP 1-7) or a dose of about 100 mg/kg (for CP 8). After the examination period, 6 h after the last dose blood samples were collected from the orbital plexus of rats. Samples were left to clot at room temperature for 30 min then centrifuged at 1000 rpm for 20 min.
The collected sera were used for determination of the activity of both (AST) aspirate aminotransferase and (ALT) alanine aminotransferase as liver markers. In addition, levels of blood urea, serum creatinine were also estimated as kidney markers (Awaad et al., 2013).

Take `Cc1cccc(N2CCN(CC(=O)Nc3ccc(S(N)(=O)=O)cc3)CC2)c1C` [CP-6, 2-[4(2,3-Xylyl)piperazinyl]-N-(4-aminosulphonylphenyl)acetamide]: the melting point (in general, the temperature of the solid-liquid transition) was in the range of 241 to 243 °C. Moreover, the inhibition in vivo at 50 mg/kg in data set [1] (Rattus norvegicus, po, 120 h, protection of control colitis, read-out: % Protection) was 30.6%. The Wt/l in data set [1] (colon wet weight/length ratio, oral 5 days) was 0.71 ± 0.05. Besides, the inhibition in vivo at 50 mg/kg in data set [2] (Rattus norvegicus, po, protection of control ulcer, read-out: % protection) was determined as 88.5%. Further, in data set [2] (lesion score 0-5, rats), the score is given as 3.00. In data set [3] (rat serum), the ALT worked out at 36.02 ± 1.58 U/l and the AST is given as 44.7 ± 1.66 U/l. In addition, in data set [3] (rats), the “Blood Urea” value was 51.00 ± 0.89 mg/dL and the “Serum Creatinine” value was found to be 0.83 ± 0.08 mg/dL.
